# Reference: US10689331B2, “IDO inhibitors” (Bristol-Myers Squibb Company, priority 2015, dated 2020)
# Target: T1, human IDO1 (Homo sapiens, UniProt P14902)
# T1 construct: expressed in transfected cells
# Assay: HEK Human IDO-1 inhibition assay (kynurenine readout, Ehrlich reagent, absorbance 490 nm)
# Type: cell-based
# Details: human IDO1/HEK293 cells, incubated 20 hours with compound; 500 nM reference standard = 100% inhibition
# In short: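 HEK293 cells stably expressing human IDO1, treated with compound for 20 h at 37 °C in phenol red-free RPMI/10% FBS. Kynurenine detected after TCA (0.2% final, 50 °C, 30 min) by Ehrlich reagent absorbance at 490 nm; IC50 normalised to 500 nM reference standard (100%) and DMSO (0%).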
# T1 sequence (P14902 whole entry): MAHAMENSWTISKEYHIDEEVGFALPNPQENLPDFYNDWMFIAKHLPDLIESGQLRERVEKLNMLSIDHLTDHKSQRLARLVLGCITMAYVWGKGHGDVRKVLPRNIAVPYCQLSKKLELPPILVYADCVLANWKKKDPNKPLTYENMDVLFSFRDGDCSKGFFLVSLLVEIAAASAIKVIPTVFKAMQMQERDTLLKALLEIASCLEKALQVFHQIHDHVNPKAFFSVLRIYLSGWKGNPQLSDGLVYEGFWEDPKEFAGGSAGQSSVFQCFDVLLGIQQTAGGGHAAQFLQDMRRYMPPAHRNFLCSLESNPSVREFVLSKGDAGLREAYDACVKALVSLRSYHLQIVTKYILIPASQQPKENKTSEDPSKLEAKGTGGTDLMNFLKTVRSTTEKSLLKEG
row,SMILES,IC50 [nM]
1,"CC(C)CN(c1ccc(OCC(=O)O)cc1NC(=O)Cc1ccc(Cl)c(F)c1)C1CCCCC1 [Example 54, 2-(3-(2-(4-chloro-3-fluorophenyl)acetamido)-4-(cyclohexyl(isobutyl)amino)phenoxy)acetic acid]",≥ 100
2,"Cc1ccc(CC(=O)Nc2cc(OCC(=O)O)ccc2N(CC(C)C)C2CCCCC2)c(F)c1 [Example 55, 2-(4-(cyclohexyl(isobutyl)amino)-3-(2-(2-fluoro-4-methylphenyl)acetamido)phenoxy)acetic acid]",< 100
3,"CC(C)CN(c1ccc(OCC(=O)O)cc1NC(=O)Cc1ccc(F)cc1F)C1CCCCC1 [Example 56, 2-(4-(cyclohexyl(isobutyl)amino)-3-(2-(2,4-difluorophenyl)acetamido)phenoxy)acetic acid]",≥ 100
4,"CC(C)CN(c1ccc(OCC(=O)O)cc1NC(=O)Cc1ccc(F)cc1)C1CCCCC1 [Example 57, 2-(4-(cyclohexyl(isobutyl)amino)-3-(2-(4-fluorophenyl)acetamido)phenoxy)acetic acid]",≥ 100
5,"Cc1ccc(NC(=O)Nc2cc(OC(C)(C)C(=O)O)ccc2N(CC(C)C)C2CCCCC2)cc1 [Example 92, 2-(4-(cyclohexyl(isobutyl)amino)-3-(3-(p-tolyl)ureido)phenoxy)-2-methylpropanoic acid]",< 5
6,"Cc1ccc(NC(=O)Nc2cc(OC3(C(=O)O)CC3)ccc2N(CC(C)C)C2CCCCC2)cc1 [Example 94, 1-(4-(cyclohexyl(isobutyl)amino)-3-(3-(p-tolyl)ureido)phenoxy)cyclopropanecarboxylic acid]",< 5
7,"Cc1ccc(NC(=O)Nc2cc(OCc3nnn[nH]3)c(F)cc2N(CC(C)C)CC(C)C)cc1 [Example 95, 1-(5-((1H-tetrazol-5-yl)methoxy)-2-(diisobutylamino)-4-fluorophenyl)-3-(p-tolyl)urea]",< 100
8,"CC(C)CN(c1ccc(OCC(=O)O)cc1NC(=O)Nc1ccc(Cl)cc1F)C1CCC(F)(F)CC1 [Example 98, 2-(3-(3-(4-Chloro-2-fluorophenyl)ureido)-4-((4,4-difluorocyclohexyl)(isobutyl)amino)-phenoxy)acetic acid]",< 5
9,"CC(C)CN(c1ccc(OCC(=O)O)cc1NC(=O)Nc1ccc(Br)cc1F)C1CCC(F)(F)CC1 [Example 99, 2-(3-(3-(4-Bromo-2-fluorophenyl)ureido)-4-((4,4-difluorocyclohexyl)(isobutyl)amino)-phenoxy)acetic acid]",< 5
10,"CCOc1ccc(NC(=O)Nc2cc(OCC(=O)O)ccc2N(CC(C)C)C2CCC(F)(F)CC2)cc1 [Example 100, 2-(4-((4,4-Difluorocyclohexyl)(isobutyl)amino)-3-(3-(4-ethoxyphenyl)ureido)phenoxy)acetic acid]",≥ 100
11,"CC(C)CN(c1ncc(OCC(=O)NS(=O)(=O)C2CC2)cc1NC(=O)Nc1ccc(Cl)cc1F)C1CCCCC1 [Example 103, 2-((5-(3-(4-chloro-2-fluorophenyl)ureido)-6-(cyclohexyl(isobutyl)amino)pyridin-3-yl)oxy)-N-(cyclopropylsulfonyl)acetamide]",< 5
12,"CC(C)CN(c1c(F)cc(OCC(=O)NS(=O)(=O)C2CC2)cc1NC(=O)Nc1ccc(Cl)cc1F)C1CCCCC1 [Example 105, 2-(3-(3-(4-chloro-2-fluorophenyl)ureido)-4-(cyclohexyl(isobutyl)amino)-5-fluorophenoxy)-N-(cyclopropylsulfonyl)acetamide]",< 5
13,"CC(C)CN(c1c(F)cc(OCC(=O)O)cc1NC(=O)Nc1cc(F)ccc1F)C1CCCCC1 [Example 106, 2-(4-(cyclohexyl(isobutyl)amino)-3-(3-(2,5-difluorophenyl)ureido)-5-fluorophenoxy)acetic acid]",< 5
14,"CC(C)CN(c1c(C#N)cc(OCC(=O)O)cc1NC(=O)Nc1ccc(Cl)cc1F)C1CCCCC1 [Example 108, 2-(3-(3-(4-chloro-2-fluorophenyl)ureido)-5-cyano-4-(cyclohexyl(isobutyl)amino)phenoxy)acetic acid]",< 100
15,"Cc1ccc(NC(=O)Nc2cc(OCC(=O)O)ccc2N(CC(C)C)C2CCCCC2)cc1 [Example 109, 2-(4-(cyclohexyl(isobutyl)amino)-3-(3-(p-tolyl)ureido)phenoxy)acetic acid]",< 100
16,"Cc1ccc(NC(=O)Nc2cc(OCC(=O)O)ccc2N(CC(C)C)CC(C)C)cc1 [Example 112, 2-(4-(diisobutylamino)-3-(3-(p-tolyl)ureido)phenoxy)acetic acid]",≥ 100
17,"C=C(C)CN(CCCC(F)(F)F)c1cc(F)c(OCC(=O)O)cc1NC(=O)Nc1ccc(Cl)cc1F [Example 113, 2-(5-(3-(4-chloro-2-fluorophenyl)ureido)-2-fluoro-4-((2-methylallyl)(4,4,4-trifluorobutyl)amino)phenoxy)acetic acid]",< 5

# Next, values leading:
row,IC50 [nM],SMILES
1,< 5,"CC(C)CN(c1ccc(OC(C)(C)C(=O)O)cc1NC(=O)Nc1ccc(Cl)cc1F)C1CCCCC1 [Example 91, 2-(3-(3-(4-chloro-2-fluorophenyl)ureido)-4-(cyclohexyl(isobutyl)amino)phenoxy)-2-methylpropanoic acid]"
2,< 5,"CC(C)CN(c1ccc(OC2(C(=O)O)CC2)cc1NC(=O)Nc1ccc(Cl)cc1F)C1CCCCC1 [Example 93, 1-(3-(3-(4-chloro-2-fluorophenyl)ureido)-4-(cyclohexyl(isobutyl)amino)phenoxy)cyclopropanecarboxylic acid]"
3,< 5,"CC(C)CN(c1ccc(OCc2nnn[nH]2)cc1NC(=O)Nc1ccc(Cl)cc1F)C1CCCCC1 [Example 96, 1-(5-((1H-tetrazol-5-yl)methoxy)-2-(cyclohexyl(isobutyl)amino)phenyl)-3-(4-chloro-2-fluorophenyl)urea]"
4,< 5,"CC(C)CN(c1ccc(OCc2nnn[nH]2)cc1NC(=O)Nc1ccccc1F)C1CCCCC1 [Example 97, 1-(5-((1H-tetrazol-5-yl)methoxy)-2-(cyclohexyl(isobutyl)amino)phenyl)-3-(2-fluorophenyl)urea]"
5,< 5,"CC(C)CN(c1ncc(OCC(=O)O)cc1NC(=O)Nc1ccc(Cl)cc1F)C1CCCCC1 [Example 102, 2-((5-(3-(4-chloro-2-fluorophenyl)ureido)-6-(cyclohexyl(isobutyl)amino)pyridin-3-yl)oxy)acetic acid]"
6,< 5,"CC(C)CN(c1c(F)cc(OCC(=O)O)cc1NC(=O)Nc1ccc(Cl)cc1F)C1CCCCC1 [Example 104, 2-(3-(3-(4-chloro-2-fluorophenyl)ureido)-4-(cyclohexyl(isobutyl)amino)-5-fluorophenoxy)acetic acid]"
7,≥ 100,"CC(C)CN(c1ccc(OCC(=O)O)c(F)c1NC(=O)Nc1ccc(Cl)cc1F)C1CCCCC1 [Example 107, 2-(3-(3-(4-chloro-2-fluorophenyl)ureido)-4-(cyclohexyl(isobutyl)amino)-2-fluorophenoxy)acetic acid]"
8,< 100,"CC(C)CN(c1ccc(OCC(=O)O)cc1NC(=O)Cc1ccc(Cl)cc1F)C1CCCCC1 [Example 110, 2-(3-(2-(4-chloro-2-fluorophenyl)acetamido)-4-(cyclohexyl(isobutyl)amino)phenoxy)acetic acid]"
9,≥ 100,"Cc1cnc(NC(=O)COc2ccc(N(CC(C)C)C3CCCCC3)c(NC(=O)Nc3ccc(Cl)cc3F)c2)s1 [Example 111, 2-(3-(3-(4-chloro-2-fluorophenyl)ureido)-4-(cyclohexyl(isobutyl)amino)phenoxy)-N-(5-methylthiazol-2-yl)acetamide]"
